From PubChem BioAssay (NCI)
Where “and” joins values, the source holds several entries; their conditions need not be identical. Identical values can stand only once.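 1) Cells in 96-well plates. 2) Compound, 48 h, 5 concentrations. 3) Linear interpolation between surrounding doses. 4) Unreached endpoint = highest concentration. GI50 marks 50% less growth. At the TGI there is no net growth.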

What was measured:
Assay in all cases: NCI tumour cell line growth inhibition, 48 h
786-0 renal = system: 786-0 renal
A498 renal = system: A498 renal
A549 NSCLC = system: A549 NSCLC
ACHN renal = system: ACHN renal
BT-549 breast = system: BT-549 breast
CAKI-1 renal = system: CAKI-1 renal
COLO 205 colon = system: COLO 205 colon
DU-145 prostate = system: DU-145 prostate
EKVX NSCLC = system: EKVX NSCLC
HCT-116 colon = system: HCT-116 colon
HCT-15 colon = system: HCT-15 colon
HL-60(TB) leukemia = system: HL-60(TB) leukemia
HOP-62 NSCLC = system: HOP-62 NSCLC
HOP-92 NSCLC = system: HOP-92 NSCLC
HS 578T breast = system: HS 578T breast
HT29 colon = system: HT29 colon
IGROV1 ovarian = system: IGROV1 ovarian
K-562 leukemia = system: K-562 leukemia
KM12 colon = system: KM12 colon
LOX IMVI melanoma = system: LOX IMVI melanoma
M14 melanoma = system: M14 melanoma
MCF7 breast = system: MCF7 breast
MDA-MB-231 breast = system: MDA-MB-231 breast
MDA-MB-435 = system: MDA-MB-435
MOLT-4 leukemia = system: MOLT-4 leukemia
NCI-H226 lung = system: NCI-H226 lung
NCI-H23 lung = system: NCI-H23 lung
NCI-H460 lung = system: NCI-H460 lung
NCI/ADR-RES ovarian = system: NCI/ADR-RES ovarian
OVCAR-3 ovarian = system: OVCAR-3 ovarian
OVCAR-5 ovarian = system: OVCAR-5 ovarian
OVCAR-8 ovarian = system: OVCAR-8 ovarian
PC-3 prostate = system: PC-3 prostate
RPMI-8226 leukemia = system: RPMI-8226 leukemia
RXF 393 renal = system: RXF 393 renal
SF-268 CNS = system: SF-268 CNS
SF-295 CNS = system: SF-295 CNS
SF-539 CNS = system: SF-539 CNS
SK-MEL-2 melanoma = system: SK-MEL-2 melanoma
SK-MEL-28 melanoma = system: SK-MEL-28 melanoma
SK-MEL-5 melanoma = system: SK-MEL-5 melanoma
SK-OV-3 ovarian = system: SK-OV-3 ovarian
SN12C renal = system: SN12C renal
SNB-19 CNS = system: SNB-19 CNS
SR leukemia = system: SR leukemia
SW-620 colon = system: SW-620 colon
TK-10 renal = system: TK-10 renal
U251 CNS = system: U251 CNS
UACC-257 melanoma = system: UACC-257 melanoma
UACC-62 melanoma = system: UACC-62 melanoma
UO-31 renal = system: UO-31 renal
CCRF-CEM leukemia = system: CCRF-CEM leukemia
HCC-2998 colon = system: HCC-2998 colon
MALME-3M melanoma = system: MALME-3M melanoma
T-47D breast = system: T-47D breast

With `CCCN1C(=O)/C(=C/c2ccc(SC(F)(F)F)cc2)SC1=Nc1ccc(OC)cc1` the GI50 (786-0 renal) was 9.56 µM, the TGI (786-0 renal) was 25.6 µM and the GI50 (A498 renal) was 11 µM. For the same compound, the TGI (A498 renal) was 21.9 µM, the GI50 (A549 NSCLC) was 8.87 µM and the TGI (A549 NSCLC) was 30.1 µM. The GI50 (ACHN renal) was 5.53 µM, the TGI (ACHN renal) was 11.8 µM and the GI50 (BT-549 breast) was 45.1 µM. The TGI (BT-549 breast) was greater than 50 µM, the GI50 (CAKI-1 renal) was 2.63 µM and the TGI (CAKI-1 renal) was 12.5 µM. The GI50 (COLO 205 colon) was greater than 50 µM, the TGI (COLO 205 colon) was greater than 50 µM and the GI50 (DU-145 prostate) was 21.8 µM. It also gave a TGI (DU-145 prostate) greater than 50 µM, a GI50 (EKVX NSCLC) of 16.7 µM and a TGI (EKVX NSCLC) of 48.3 µM. For the same compound, the GI50 (HCT-116 colon) was 6.29 µM, the TGI (HCT-116 colon) was 17.5 µM and the GI50 (HCT-15 colon) was 2.65 µM. For the same compound, the TGI (HCT-15 colon) was 36.9 µM, the GI50 (HL-60(TB) leukemia) was greater than 50 µM and the TGI (HL-60(TB) leukemia) was greater than 50 µM. The GI50 (HOP-62 NSCLC) was 16.5 µM, the TGI (HOP-62 NSCLC) was greater than 50 µM and the GI50 (HOP-92 NSCLC) was 6.6 µM. The TGI (HOP-92 NSCLC) was 19.8 µM, the GI50 (HS 578T breast) was 14 µM and the TGI (HS 578T breast) was 33.4 µM. For the same compound, the GI50 (HT29 colon) was 17.6 µM, the TGI (HT29 colon) was greater than 50 µM and the GI50 (IGROV1 ovarian) was 29.6 µM. It also gave a TGI (IGROV1 ovarian) greater than 50 µM, a GI50 (K-562 leukemia) of 23.1 µM and a TGI (K-562 leukemia) greater than 50 µM. It also gave a GI50 (KM12 colon) of 19.7 µM, a TGI (KM12 colon) greater than 50 µM and a GI50 (LOX IMVI melanoma) of 4.36 µM. It also gave a TGI (LOX IMVI melanoma) greater than 50 µM, a GI50 (M14 melanoma) of 18.6 µM and a TGI (M14 melanoma) greater than 50 µM. The GI50 (MCF7 breast) was 15.6 µM, the TGI (MCF7 breast) was greater than 50 µM and the GI50 (MDA-MB-231 breast) was 5.93 µM. For the same compound, the TGI (MDA-MB-231 breast) was 19.5 µM, the GI50 (MDA-MB-435) was 20 µM and the TGI (MDA-MB-435) was greater than 50 µM. The GI50 (MOLT-4 leukemia) was greater than 50 µM, the TGI (MOLT-4 leukemia) was greater than 50 µM and the GI50 (NCI-H226 lung) was 14.8 µM. For the same compound, the TGI (NCI-H226 lung) was greater than 50 µM, the GI50 (NCI-H23 lung) was 12.6 µM and the TGI (NCI-H23 lung) was 30.2 µM. It also gave a GI50 (NCI-H460 lung) of 12.1 µM, a TGI (NCI-H460 lung) greater than 50 µM and a GI50 (NCI/ADR-RES ovarian) of 11 µM. It also gave a TGI (NCI/ADR-RES ovarian) of 42.4 µM, a GI50 (OVCAR-3 ovarian) of 13.5 µM and a TGI (OVCAR-3 ovarian) of 31.1 µM. The GI50 (OVCAR-5 ovarian) was 7.84 µM, the TGI (OVCAR-5 ovarian) was 24 µM and the GI50 (OVCAR-8 ovarian) was 7.42 µM. For the same compound, the TGI (OVCAR-8 ovarian) was 20.7 µM, the GI50 (PC-3 prostate) was 15.6 µM and the TGI (PC-3 prostate) was greater than 50 µM. For the same compound, the GI50 (RPMI-8226 leukemia) was 11.8 µM, the TGI (RPMI-8226 leukemia) was greater than 50 µM and the GI50 (RXF 393 renal) was 5.35 µM. It also gave a TGI (RXF 393 renal) of 16.9 µM, a GI50 (SF-268 CNS) of 11.3 µM and a TGI (SF-268 CNS) of 43.9 µM. For the same compound, the GI50 (SF-295 CNS) was 9.32 µM, the TGI (SF-295 CNS) was 38.1 µM and the GI50 (SF-539 CNS) was 9.96 µM. It also gave a TGI (SF-539 CNS) of 21.6 µM, a GI50 (SK-MEL-2 melanoma) of 36.5 µM and a TGI (SK-MEL-2 melanoma) greater than 50 µM. It also gave a GI50 (SK-MEL-28 melanoma) of 28.4 µM, a TGI (SK-MEL-28 melanoma) greater than 50 µM and a GI50 (SK-MEL-5 melanoma) of 17.3 µM. It also gave a TGI (SK-MEL-5 melanoma) greater than 50 µM, a GI50 (SK-OV-3 ovarian) of 15.2 µM and a TGI (SK-OV-3 ovarian) greater than 50 µM. The GI50 (SN12C renal) was 13.6 µM, the TGI (SN12C renal) was greater than 50 µM and the GI50 (SNB-19 CNS) was 17.4 µM. It also gave a TGI (SNB-19 CNS) greater than 50 µM, a GI50 (SR leukemia) of 37.7 µM and a TGI (SR leukemia) greater than 50 µM. It also gave a GI50 (SW-620 colon) of 38.6 µM, a TGI (SW-620 colon) greater than 50 µM and a GI50 (TK-10 renal) of 7.1 µM. For the same compound, the TGI (TK-10 renal) was 19.2 µM, the GI50 (U251 CNS) was 6.51 µM and the TGI (U251 CNS) was 16.9 µM. The GI50 (UACC-257 melanoma) was 2.74 µM, the TGI (UACC-257 melanoma) was 22.4 µM and the GI50 (UACC-62 melanoma) was 10 µM. For the same compound, the TGI (UACC-62 melanoma) was 25.4 µM, the GI50 (UO-31 renal) was 8.2 µM and the TGI (UO-31 renal) was 17.1 µM.

`O=c1cc(-c2cccc(OC(F)(F)F)c2)[nH]c2ccc(N3CCCC3)cc12` gave a TGI (A549 NSCLC) of 44.5 µM, a TGI (ACHN renal) of 51.3 µM and a TGI (CAKI-1 renal) greater than 100 µM. The TGI (CCRF-CEM leukemia) was greater than 100 µM, the TGI (COLO 205 colon) was 0.0204 µM and 0.0319 µM and the TGI (DU-145 prostate) was 0.177 µM. It also gave a GI50 (EKVX NSCLC) of 0.0493 µM, a TGI (EKVX NSCLC) greater than 100 µM and a TGI (HCC-2998 colon) of 0.011 µM. For the same compound, the TGI (HCT-116 colon) was 0.177 µM and 1.76 µM, the TGI (HL-60(TB) leukemia) was less than 0.0001 µM and the TGI (HOP-92 NSCLC) was greater than 100 µM. It also gave a TGI (HS 578T breast) of 86.2 µM, a TGI (HT29 colon) of 0.00166 µM and a TGI (KM12 colon) of 0.00249 µM. The TGI (M14 melanoma) was greater than 100 µM, the TGI (MALME-3M melanoma) was greater than 100 µM and the GI50 (MCF7 breast) was 0.0385 µM. It also gave a TGI (MCF7 breast) greater than 100 µM, a TGI (MDA-MB-435) of less than 0.0001 µM and a TGI (MOLT-4 leukemia) of 0.00157 µM. The TGI (NCI-H226 lung) was 0.000657 µM, the TGI (NCI-H23 lung) was 0.0502 µM and the TGI (NCI/ADR-RES ovarian) was 0.000673 µM. For the same compound, the TGI (OVCAR-3 ovarian) was 0.000234 µM, the TGI (OVCAR-5 ovarian) was greater than 100 µM and the TGI (RXF 393 renal) was 0.738 µM. For the same compound, the TGI (SF-268 CNS) was 19.1 µM, the TGI (SF-295 CNS) was 0.00048 µM and the TGI (SF-539 CNS) was 0.000621 µM. For the same compound, the TGI (SK-MEL-2 melanoma) was 0.000848 µM, the TGI (SK-MEL-5 melanoma) was 0.0105 µM and the TGI (SN12C renal) was 55.9 µM. For the same compound, the TGI (SNB-19 CNS) was 11.9 µM, the TGI (SR leukemia) was less than 0.0001 µM and the TGI (SW-620 colon) was greater than 100 µM. The TGI (T-47D breast) was greater than 100 µM, the GI50 (TK-10 renal) was 0.0431 µM and the TGI (TK-10 renal) was 6.79 µM. For the same compound, the TGI (U251 CNS) was 16.5 µM, the TGI (UACC-257 melanoma) was greater than 100 µM and the TGI (UACC-62 melanoma) was 96.8 µM. The TGI (UO-31 renal) was greater than 100 µM.
